Test results: patent US9365868B2, “Fermentation process for producing isopropanol using a recombinant microorganism” (LANZATECH NEW ZEALAND LIMITED, priority 2011, dated 2016)

Experiments:
[1] = system: Clostridium autoethanogenum DSM23693; assay: Toxicity of acetone and isopropanol on growing cultures; format: cell-based; conditions: at concentrations as high as 5%
Description: Several metabolites such as alcohols (ethanol and butanol) or acids (acetic acid and butyric acid) are known to be toxic for bacteria in high concentrations and thus limit their biotechnological production [Alsaker K V, Parades C, Papoutsakis E T: Metabolite stress and tolerance in the production of biofuels and chemicals—systems analysis of butanol, butyrate, and Acetate Stresses in the Anaerobe Clostridium acetobutylicum. Biotechnol Bioeng, 2009, 105: 1131-1147]. To see if acetone and isopropanol have a toxic effect on cultures, growth experiments were carried out in 50 ml PETC media (Table 2) in serum bottles, adding different concentrations of acetone (FIG. 12) and isopropanol (FIG. 13) to growing cultures of Clostridium autoethanogenum DSM23693.

[2] = system: C. autoethanogenum DSM23693; assay: Bottle growth experiments on CO-containing gas, acetone/isopropanol production from expression plasmids; format: cell-based, Clostridium autoethanogenum; conditions: Organism C. autoethanogenum, Substrate CO; for Acetone (g/L): 'Detected' = by GC qualitatively
Procedure: HPLC analysis of acetone, isopropanol and other metabolites was performed using an Agilent 1100 Series HPLC system equipped with a RID operated at 35° C. (Refractive Index Detector) and an Alltech IOA-2000 Organic acid column (150×6.5 mm, particle size 5 μm) kept at 60° C. Slightly acidified water was used (0.005 M H2SO4) as mobile phase with a flow rate of 0.7 ml/min. To remove proteins and other cell residues, 400 μl samples were mixed with 100 μl of a 2% (w/v) 5-Sulfosalicylic acid and centrifuged at 14,000×g for 3 min to separate precipitated residues. 10 μl of the supernatant were then injected into the HPLC for analyses.
GC analysis of acetone, isopropanol and other metabolites was performed using an Agilent 6890N headspace GC equipped with a Supelco PDMS 100 1 cm fiber, an Alltech EC-1000 (30 m×0.25 mm×0.25 μm) column, and a flame ionization detector (FID). 5 ml samples were transferred into a Hungate tube, heated to 40° C. in a water bath and exposed to the fiber for exactly 5 min. The injector was kept at 250° C. and helium with a constant flow of 1 ml/min was used as carrier gas. The oven program was 40° C. for 5 min, followed by an increase of 10° C./min up to 200° C. The temperature was then further increased to 220° C. with a rate of 50° C./min followed by a 5 min hold this temperature, before the temperature was decreased to 40° C. with a rate of 50° C./min and a final 1 min hold. The FID was kept at 250° C. with 40 ml/min hydrogen, 450 ml/min air and 15 ml/min nitrogen as make up gas.
Growth experiments were carried out with transformed C. autoethanogenum DSM23693 and C. ljungdahlii DSM 13528 carrying plasmid pMTL85147-thlA-ctfAB-adc in 250 ml PETC media (Table 2; without fructose and yeast extract) in 1 l Schott bottles with rubber stoppers and 30 psi steel mill gas (collected from New Zealand Steel site in Glenbrook, NZ; composition: 44% CO, 32% N2, 22% CO2, 2% H2) in the headspace as sole energy and carbon source. Acetone production was confirmed with both strains using HPLC and GC analysis. […] Using appropriate conditions, the produced acetone can then be further converted to isopropanol.
Therefore, both cultures were re-gassed with 30 psi fresh steel-mill gas after 48 h of growth and also re-inoculated. While biomass didn't increase much further, some of the produced acetone got converted into isopropanol within 24 hours (Table 16).
(§1) Constructed expression plasmids pMTL85245-kivd-adh2 and pMTL85245-kivd were transformed into E. coli strain JW3350-2 and prepared for transformation in C. autoethanogenum DSM23693, which was performed as described above. […] In serum bottle experiments, highest isopropanol concentrations from CO-containing steel mill gas were 0.050-0.064 g/L for both expression plasmids (FIGS. 65 and 66).
(§2) All plasmid construct were tested in E. coli and C. autoethanogenum DSM23693 using serum bottle experiments with sugar (E. coli) or CO-containing steel mill gas (C. autoethanogenum) as sole substrate. With all combinations tested, acetone and isopropanol production was measured when expressed heterologously in C. autoethanogenum, while in E. coli acetone production only occurred with few combinations and an alcohol dehydrogenase gene was needed for isopropanol production (Table 21). […] In C. autoethanogenum, acetone and isopropanol production even occurred with expressing the decarboxylase as only heterologous gene, indicating CoA-transferase activity. FIG. 4 illustrates the proposed pathway and Table 21 of acetone and isopropanol formation from CO and FIG. 73 gives an overview of combinations of Clostridial pathway genes and codon-optimized genes for Alpha-ketoacid decarboxylase Kivd from L lactis and Alcohol dehydrogenase Adh2 from S. cerevisiae tested in E. coli and C. autoethanogenum.

E. coli = assay: Serum bottle experiments with plasmid constructs, sugar as sole substrate; format: cell-based, Escherichia coli; conditions: Organism E. coli, 'Detected' = by GC qualitatively
Procedure: as §1, §2

[3] = system: Clostridium autoethanogenum DSM23693; assay: Experiment A: continuous fermentation on steel mill gas; format: cell-based
Procedure: Clostridium autoethanogenum DSM23693 carrying the vector pMTL83147 thl-ctfAB-adc-adh2 was grown at 37° C. under mill gas (50% CO, 18% CO2, 2% H2, and 30% N2) was continuously fed into the bioreactor. The gas flow was initially set at 80 ml/min, increasing to 200 ml/min over the course of the experiment, while the agitation was increased from 250 rpm to 750 rpm. Na2S was dosed into the bioreactor at 0.20 ml/hr, increasing to 0.4 ml/hr. The bioreactor was switched to a continuous mode at a rate of 1.0 ml/min (Dilution rate 0.96 d^−1) once the OD600 reached 0.17.
Metabolites concentrations were measured using Agilent 1100 Series HPLC system equipped with a RID operated at 35° C. (Refractive Index Detector) and an Alltech IOA-2000 Organic acid column (150×6.5 mm, particle size 5 μm) kept at 60° C. The presence of Acetone and Isopropanol was also measured using Agilent 6890N headspace GC equipped with a Supelco PDMS 100 1 cm fiber, an Alltech EC-1000 (30 m×0.25 mm×0.25 μm) column, and a flame ionization detector (FID). The composition of the gas inflows and outflows was measured using a Varian CP-4900 micro GC with two installed channels. Channel 1 was a 10 m Mol-sieve column running at 70° C., 200 kPa argon and a backflush time of 4.2 s, while channel 2 was a 10 m PPQ column running at 90° C., 150 kPa helium and no backflush. The injector temperature for both channels was 70° C. Sampling of metabolites was performed daily. Gas analysis was automated and measured hourly.
The growth and metabolite profile of Clostridium autoethanogenum DSM23693 carrying the vector pMTL83147 thl-ctfAB-adc-adh2 in a continuous fermentation over 31 days is shown in FIG. 75. The fermentation ran as a batch fermentation from inoculation to day 6. At day 7 the fermentation was switched to continuous fermentation. The increase in acetate concentration coupled with a decrease in ethanol concentration during continuous fermentation seems to have triggered a significant increase in isopropanol production. […] A GC sample was taken during the run, at day 19.

[4] = system: C. autoethanogenum DSM23693; assay: Experiment B: bioreactor fermentation on corex gas with cell retention; format: cell-based, Clostridium autoethanogenum; conditions: corex gas 40% CO, continuous mode with membrane cell retention
Procedure: Fermentations with C. autoethanogenum DSM23693 carrying the vector pMTL83147 thl-ctfAB-adc-adh2 were carried out in 1.5 L bioreactors at 37° C. and CO-containing steel mill gas. The fermenter was fed with corex gas (40% CO, 15% H2, 15% CO2, 30% N2) as sole energy and carbon source as described below. A defined medium was used containing per litre: MgCl, CaCl2 (0.5 mM), KCl (3 mM), H3PO4 (5 mM), Fe (100 μM), Ni, Zn (5 μM), Mn, B, W, Mo, Se (2 μM) was prepared for culture growth. The media was transferred into the bioreactor and autoclaved at 121° C. for 45 minutes. After autoclaving, the medium was supplemented with Thiamine, Pantothenate (0.05 mg), Biotin (0.02 mg) and reduced with 3 mM Cysteine-HCl. To achieve anaerobic conditions the reactor vessel was sparged with nitrogen through a 0.2 μm filter. […]
Metabolites concentrations were measured using Agilent 1100 Series HPLC system equipped with a RID operated at 35° C. […] The presence of Acetone and Isopropanol was also measured using Agilent 6890N headspace GC equipped with a Supelco PDMS 100 1 cm fiber, an Alltech EC-1000 (30 m×0.25 mm×0.25 μm) column, and a flame ionization detector (FID). The composition of the gas inflows and outflows was measured using a Varian CP-4900 micro GC with two installed channels. […] Gas analysis was automated and measured hourly.

[5] = continuous fermentation over 31 days, mill gas 50% CO

| Compound | inhibition of growth rate [1] | Isopropanol [2] [g/L] | Acetone (g/L) [2] | Acetone (E. coli) [g/L] | also measured |
| --- | --- | --- | --- | --- | --- |
| CC(C)=O [acetone] | only slight inhibition of growth rate |  |  |  |  |
| CC(C)O [isopropanol] | only slight inhibition of growth rate |  |  |  |  |
| pMTL83147-thlA-ctfAB-adc-P-kivd-adh2: expression plasmid with thlA, ctfAB, adc and Ppta-ack-kivd-adh2, Seq. ID. 101 |  | 0.043 | Detected | 0.076 |  |
| pMTL83147-thlA-ctfAB-adc-adh2: expression plasmid with thlA, ctfAB, adc and Adh2 from S. cerevisiae, Seq. ID. No. 98 |  | 0.648 | Detected | 0.040 | presence of the plasmid by PCR ([3]; checked regularly throughout the fermentation): found to be present throughout the fermentation; Isopropanol production rate [3, 5]: 0.7 g per litre per day; isopropanol concentration reached [3, 5]: 0.250 g per litre; isopropanol concentration reached [4]: 0.37 g per Litre |
| pMTL85147-thlA-ctfAB-adc-kivd: combination plasmid of Clostridial genes and kivd as labelled in Table 21; probably Seq. ID. No. 95 |  | 0.091 | Detected |  | Acetone (g/L) (E. coli): Detected |
